Measurements taken from patent US6399649B1, “Compositions and methods for the treatment of chronic lymphocytic leukemia” (Boston Medical Center Corporation, priority 1998, dated 2002).

How the values were obtained:
[1] = test system: PDE activity in CLL cells; test: cAMP PDE assay on CLL cell lysates; format: biochemical, human; details: 10 uMol/L
Source text: The technique of Robiesek et al., itself adapted from an assay described by Thompson and Appleman, was used in modified form. S. A. Robicsek et al., “Multiple high-affinity cAMP-phosphodiesterases in human T-lymphocytes,” Biochem. Pharmacol. 42:869 (1991). W. J. Thompson and M. M. Appleman, “Multiple cyclic nucleotide phosphodiesterase activities from rat brain,” Biochemistry 10:311 […]. 150 million purified CLL cells were pelleted and sonicated (Branson 350 Sonifier with micropit probe, output =2, 50% duty cycle) on ice in 1.0 mL of a buffer which contained 20 mMol/L Tris (pH 6.8), 1 mMol/L EDTA, aprotinin (50 u/mL), pepstatin (1 mg/mL), PMSF (1 mMol/L) and 3.75 mMol/L b-ME. Assay buffer contained 100 mMol/L Tris (pH 8.0), 20 mMol/l MgCl2, 0.2% BSA and 7.5 mMol/L b-ME. [^3H]-cAMP (NEN, Boston, Mass.) was incubated with PDE for 10 minutes at 30° C. in 20 uL volumes (10 uL of sonication buffer and 10 uL of assay buffer) which contained 0.22 units of alkaline phosphatase. 10 uMol/L rolipram or 0.2 mMol/L calcium/20 nMol/L calmodulin were added to the assay buffer as appropriate. Reactions were halted by the addition of 0.5 mL of a 1:3 slurry w/v slurry of AG1-X8 anion exchange resin and a mixture of equal volumes of water and isopropanol. […] The radiolabelled nucleosides in the supernatant were counted using Ecoscint scintillation fluid (National Diagnostics, Atlanta, Ga.). […]

CLL cells = test: cAMP assay (RIA) in CLL cells; format: cell-based, human; details: two hours; used alone and combined with forskolin
Protocol: One million cells in 1 mL were treated for two hours with or without drugs. 0.8 mL of cells were pelleted by spinning at 4,000 rpm (RCF=1,310) in microcentrifuge tube. After discarding 0.7 mL, 400 uL of ethanol was added, vortexed and left on ice for five minutes. Particulate cell debris was removed by centrifugation at 14,000 rpm (RCF=16,000). The supernatant was stored at −20° C. until the day of assay, at which time it was dried in a Speedivac (Savant, Farmingdale, N.Y.) to a volume of 50 uL. After ten-fold dilution in 10 mMol/L Tris pH 8.0, 1 mMol/L EDTA, the cAMP sample was analyzed for cAMP concentration using a cAMP RIA kit (NEN, Boston, Mass.) according to the manufacturer's instructions using the nonacetylated protocol.
In this example, it was determined what role type 1 and type 4 PDE activity might play in the catabolism of cyclic nucleotides in CLL cells. cAMP levels were measured after culturing leukemic cells with varying concentrations of PDE-isoform specific inhibitors, either alone or in conjunction with an activator of adenylate cyclase, the diterpene forskolin. Specifically, one million freshly isolated cells were incubated with the indicated drugs for two hours prior to analysis of cAMP in cell lysates using a radioimmunoassay. The results are shown in FIG. 4 and the data are the mean of three individually assayed culture wells.

[2] = test system: magnetic bead purified CD19+B cells; test: Hoechst 33342 apoptosis assay, CD19+ B cells; format: cell-based, human
Protocol: Hoechst 33342 was dissolved in water and frozen at 33 mg/mL at −20° C. One million cells/well were incubated in duplicate or triplicate in 48 well tissue culture plates (Costar, Cambridge, Mass.) with or without drug treatment for […] in 1 mL of culture media. Cells were transferred to 12×75 mm polystyrene Falcon® 2054 FACS tubes (Becton Dickinson Labware, Lincoln Park, N.J.) and incubated for ten minutes at 37° C. with Hoechst 33342 at a final concentration of […]. 23 Cells were stored on ice until analysis on a FACS Vantage flow cytometer (Becton Dickinson, San Jose, Calif.). Hoechst 33342 dye fluorescence was excited with a UV laser and detected using a 450 bandpass filter; Data was analyzed using Cellquest software (Becton Dickinson, San Jose, Calif.).
This example describes the effect of PDE4 inhibition on normal B and T cells. […] Specifically, one million WMC were cultured with the indicated concentration of rolipram with or without the addition of 40 uMol/L forskolin for 72 hours in the presence of 2 units/mL IL-2. Apoptosis was determined by Hoechst 33342 flow cytometry. […] In contrast, magnetic bead purified CD19+B cells were sensitive to rolipram, although the increment in apoptosis observed was superimposed on a high basal apoptosis rate that has previously been reported in cultured human B cells. Given that crosslinking of cell surface immunoglobulin on resting B cells has been reported to reduce basal and forskolin-induced apoptosis in culture, we also stimulated CD19+ cells with a polyclonal Fab′2 anti-IgM/IgG reagent 30 minutes prior to the addition of the phosphodiesterase inhibitor.

[3] = cited from earlier work

## COc1ccc(C2CNC(=O)C2)cc1OC1CCCC1 (racemic) [rolipram, 4-(3-cyclopentyloxy-4-methoxyphenyl)-2-pyrrolidone]
[1]
  PDE activity in CLL cells: inhibited
CLL cells
  CLL cAMP levels: augmented CLL cAMP levels
[2]; polyclonal Fab'2 anti-IgM/IgG 30 minutes prior to inhibitor
  apoptosis of anti-Ig stimulated CD19+ B cells: markedly reduced both basal apoptosis and the sensitivity of the B cells to rolipram
[2]; unstimulated, high basal apoptosis rate
  apoptosis of CD19+ B cells: sensitive
[3]; humans, higher dosages
  emesis: emetogenic
[3]; studied as an antidepressant in humans
  tolerability: well tolerated
